{
  "source": "paper PMC8699473",
  "about": "“An Easily Expandable Multi-Drug LC-MS Assay for the Simultaneous Quantification of 57 Oral Antitumor Drugs in Human Plasma” (Cancers, 2021)",
  "key": {"[1]": {"assay": "Freeze-thaw stability in spiked pooled human plasma", "assay_type": "physicochemical"}, "[2]": {"assay": "Long-term stability in spiked pooled human plasma"}, "[3]": {"assay": "Autosampler stability of ready for injection samples", "assay_type": "physicochemical, human"}, "[4]": {"assay": "Short-term stability in spiked pooled human plasma (bench-top, 4 °C, 56 °C)"}, "[5]": {"set-up": "method as in supplement references [1-55] as printed per drug", "conditions": "minimum steady-state blood plasma concentration after multiple dose administration; ref supplement references [1-55] per drug; cited from earlier work"}},
  "data": [
    {"molecule": "C#Cc1cccc(Nc2ncnc3cc(OCCOC)c(OCCOC)cc23)c1", "note": "[Erlotinib]", "values": [
      {"measurement": "Freeze-Thaw Accuracy [%]", "setting": "[1]; validation standard 2xLLOV", "value": 100.9, "unit": "%"},
      {"measurement": "Freeze-Thaw Accuracy [%]", "setting": "[1]; validation standard LLOV", "value": 113.3, "unit": "%"},
      {"measurement": "Freeze-Thaw Accuracy [%]", "setting": "[1]; validation standard MOV", "value": 100.4, "unit": "%"},
      {"measurement": "Freeze-Thaw Accuracy [%]", "setting": "[1]; validation standard ULOV", "value": 102.0, "unit": "%"},
      {"measurement": "Long-term stability, 1 month, -20°C Accuracy [%]", "setting": "[2]; validation standard 2xLLOV", "value": 102.3, "unit": "%"},
      {"measurement": "Long-term stability, 1 month, -80°C Accuracy [%]", "setting": "[2]; validation standard 2xLLOV", "value": 98.1, "unit": "%"},
      {"measurement": "Long-term stability, 2 month, -20°C Accuracy [%]", "setting": "[2]; validation standard 2xLLOV", "value": 106.4, "unit": "%"},
      {"measurement": "Long-term stability, 2 month, -80°C Accuracy [%]", "setting": "[2]; validation standard 2xLLOV", "value": 105.9, "unit": "%"},
      {"measurement": "Long-term stability, 3 month, -20°C Accuracy [%]", "setting": "[2]; validation standard 2xLLOV", "value": 106.0, "unit": "%"},
      {"measurement": "Long-term stability, 3 month, -80°C Accuracy [%]", "setting": "[2]; validation standard 2xLLOV", "value": 105.8, "unit": "%"},
      {"measurement": "Long-term stability, 6 weeks, 4°C, without daylight Accuracy [%]", "setting": "[2]; validation standard 2xLLOV", "value": 95.9, "unit": "%"},
      {"measurement": "Long-term stability, 1 month, -20°C Accuracy [%]", "setting": "[2]; validation standard LLOV", "value": 113.5, "unit": "%"},
      {"measurement": "Long-term stability, 1 month, -80°C Accuracy [%]", "setting": "[2]; validation standard LLOV", "value": 108.0, "unit": "%"},
      {"measurement": "Long-term stability, 2 month, -20°C Accuracy [%]", "setting": "[2]; validation standard LLOV", "value": 113.2, "unit": "%"},
      {"measurement": "Long-term stability, 2 month, -80°C Accuracy [%]", "setting": "[2]; validation standard LLOV", "value": 114.8, "unit": "%"},
      {"measurement": "Long-term stability, 3 month, -20°C Accuracy [%]", "setting": "[2]; validation standard LLOV", "value": 111.5, "unit": "%"},
      {"measurement": "Long-term stability, 3 month, -80°C Accuracy [%]", "setting": "[2]; validation standard LLOV", "value": 114.1, "unit": "%"},
      {"measurement": "Long-term stability, 6 weeks, 4°C, without daylight Accuracy [%]", "setting": "[2]; validation standard LLOV", "value": 107.0, "unit": "%"},
      {"measurement": "Long-term stability, 1 month, -20°C Accuracy [%]", "setting": "[2]; validation standard MOV", "value": 97.4, "unit": "%"},
      {"measurement": "Long-term stability, 1 month, -80°C Accuracy [%]", "setting": "[2]; validation standard MOV", "value": 97.0, "unit": "%"},
      {"measurement": "Long-term stability, 2 month, -20°C Accuracy [%]", "setting": "[2]; validation standard MOV", "value": 102.2, "unit": "%"},
      {"measurement": "Long-term stability, 2 month, -80°C Accuracy [%]", "setting": "[2]; validation standard MOV", "value": 101.3, "unit": "%"},
      {"measurement": "Long-term stability, 3 month, -20°C Accuracy [%]", "setting": "[2]; validation standard MOV", "value": 102.2, "unit": "%"},
      {"measurement": "Long-term stability, 3 month, -80°C Accuracy [%]", "setting": "[2]; validation standard MOV", "value": 102.8, "unit": "%"},
      {"measurement": "Long-term stability, 6 weeks, 4°C, without daylight Accuracy [%]", "setting": "[2]; validation standard MOV", "value": 111.0, "unit": "%"},
      {"measurement": "Long-term stability, 1 month, -20°C Accuracy [%]", "setting": "[2]; validation standard ULOV", "value": 99.6, "unit": "%"},
      {"measurement": "Long-term stability, 1 month, -80°C Accuracy [%]", "setting": "[2]; validation standard ULOV", "value": 97.8, "unit": "%"},
      {"measurement": "Long-term stability, 2 month, -80°C Accuracy [%]", "setting": "[2]; validation standard ULOV", "value": 104.4, "unit": "%"},
      {"measurement": "Long-term stability, 3 month, -20°C Accuracy [%]", "setting": "[2]; validation standard ULOV", "value": 101.8, "unit": "%"},
      {"measurement": "Long-term stability, 3 month, -80°C Accuracy [%]", "setting": "[2]; validation standard ULOV", "value": 104.4, "unit": "%"},
      {"measurement": "Long-term stability, 6 weeks, 4°C, without daylight Accuracy [%]", "setting": "[2]; validation standard ULOV", "value": 103.7, "unit": "%"},
      {"measurement": "Autosampler (24h, 4°C) Accuracy [%]", "setting": "[3]; validation standard 2xLLOV", "value": 102.3, "unit": "%"},
      {"measurement": "Autosampler (72h, 4°C) Accuracy [%]", "setting": "[3]; validation standard 2xLLOV", "value": 98.1, "unit": "%"},
      {"measurement": "Autosampler (72h, 4°C) Accuracy [%]", "setting": "[3]; validation standard LLOV", "value": 103.9, "unit": "%"},
      {"measurement": "Autosampler (24h, 4°C) Accuracy [%]", "setting": "[3]; validation standard MOV", "value": 103.3, "unit": "%"},
      {"measurement": "Autosampler (72h, 4°C) Accuracy [%]", "setting": "[3]; validation standard MOV", "value": 98.3, "unit": "%"},
      {"measurement": "Autosampler (24h, 4°C) Accuracy [%]", "setting": "[3]; validation standard ULOV", "value": 103.4, "unit": "%"},
      {"measurement": "Autosampler (72h, 4°C) Accuracy [%]", "setting": "[3]; validation standard ULOV", "value": 102.9, "unit": "%"},
      {"measurement": "Short-time stability (1h, 56°C) Accuracy [%]", "setting": "[4]; validation standard 2xLLOV", "value": 61.0, "unit": "%"},
      {"measurement": "Short-time stability (24h, 4°C, without daylight) Accuracy [%]", "setting": "[4]; validation standard 2xLLOV", "value": 100.7, "unit": "%"},
      {"measurement": "Short-time stability (24h, RT, without daylight) Accuracy [%]", "setting": "[4]; validation standard 2xLLOV", "value": 95.3, "unit": "%"},
      {"measurement": "Short-time stability (1h, 56°C) Accuracy [%]", "setting": "[4]; validation standard LLOV", "value": 69.2, "unit": "%"},
      {"measurement": "Short-time stability (24h, 4°C, without daylight) Accuracy [%]", "setting": "[4]; validation standard LLOV", "value": 110.4, "unit": "%"},
      {"measurement": "Short-time stability (24h, RT, without daylight) Accuracy [%]", "setting": "[4]; validation standard LLOV", "value": 107.4, "unit": "%"},
      {"measurement": "Short-time stability (1h, 56°C) Accuracy [%]", "setting": "[4]; validation standard MOV", "value": 52.1, "unit": "%"},
      {"measurement": "Short-time stability (24h, 4°C, without daylight) Accuracy [%]", "setting": "[4]; validation standard MOV", "value": 98.0, "unit": "%"},
      {"measurement": "Short-time stability (24h, RT, without daylight) Accuracy [%]", "setting": "[4]; validation standard MOV", "value": 97.9, "unit": "%"},
      {"measurement": "Short-time stability (1h, 56°C) Accuracy [%]", "setting": "[4]; validation standard ULOV", "value": 45.8, "unit": "%"},
      {"measurement": "Short-time stability (24h, 4°C, without daylight) Accuracy [%]", "setting": "[4]; validation standard ULOV", "value": 98.7, "unit": "%"},
      {"measurement": "Short-time stability (24h, RT, without daylight) Accuracy [%]", "setting": "[4]; validation standard ULOV", "value": 101.0, "unit": "%"},
      {"measurement": "cmin", "setting": "[5]", "value": 1011, "unit": "ng/mL"}
    ]},
    {"molecule": "CC[C@H](Nc1ncnc2[nH]cnc12)c1nc2cccc(F)c2c(=O)n1-c1ccccc1", "note": "[Idelalisib]", "values": [
      {"measurement": "Freeze-Thaw Accuracy [%]", "setting": "[1]; validation standard 2xLLOV", "value": 98.2, "unit": "%"},
      {"measurement": "Freeze-Thaw Accuracy [%]", "setting": "[1]; validation standard LLOV", "value": 110.6, "unit": "%"},
      {"measurement": "Freeze-Thaw Accuracy [%]", "setting": "[1]; validation standard MOV", "value": 96.5, "unit": "%"},
      {"measurement": "Freeze-Thaw Accuracy [%]", "setting": "[1]; validation standard ULOV", "value": 101.5, "unit": "%"},
      {"measurement": "Autosampler (24h, 4°C) Accuracy [%]", "setting": "[3]; validation standard 2xLLOV", "value": 103.2, "unit": "%"},
      {"measurement": "Autosampler (72h, 4°C) Accuracy [%]", "setting": "[3]; validation standard 2xLLOV", "value": 98.6, "unit": "%"},
      {"measurement": "Autosampler (24h, 4°C) Accuracy [%]", "setting": "[3]; validation standard LLOV", "value": 109.4, "unit": "%"},
      {"measurement": "Autosampler (72h, 4°C) Accuracy [%]", "setting": "[3]; validation standard LLOV", "value": 109.4, "unit": "%"},
      {"measurement": "Autosampler (24h, 4°C) Accuracy [%]", "setting": "[3]; validation standard MOV", "value": 102.6, "unit": "%"},
      {"measurement": "Autosampler (72h, 4°C) Accuracy [%]", "setting": "[3]; validation standard MOV", "value": 97.1, "unit": "%"},
      {"measurement": "Autosampler (24h, 4°C) Accuracy [%]", "setting": "[3]; validation standard ULOV", "value": 103.9, "unit": "%"},
      {"measurement": "Autosampler (72h, 4°C) Accuracy [%]", "setting": "[3]; validation standard ULOV", "value": 101.4, "unit": "%"},
      {"measurement": "cmin", "setting": "[5]", "value": 318, "unit": "ng/mL"}
    ]},
    {"molecule": "CC(=O)c1c(C)c2cnc(Nc3ccc(N4CCNCC4)cn3)nc2n(C2CCCC2)c1=O", "note": "[Palbociclib]", "values": [
      {"measurement": "Autosampler (24h, 4°C) Accuracy [%]", "setting": "[3]; validation standard 2xLLOV", "value": 99.9, "unit": "%"},
      {"measurement": "Autosampler (72h, 4°C) Accuracy [%]", "setting": "[3]; validation standard 2xLLOV", "value": 100.1, "unit": "%"},
      {"measurement": "Autosampler (24h, 4°C) Accuracy [%]", "setting": "[3]; validation standard LLOV", "value": 99.4, "unit": "%"},
      {"measurement": "Autosampler (72h, 4°C) Accuracy [%]", "setting": "[3]; validation standard LLOV", "value": 97.9, "unit": "%"},
      {"measurement": "Autosampler (24h, 4°C) Accuracy [%]", "setting": "[3]; validation standard MOV", "value": 101.0, "unit": "%"},
      {"measurement": "Autosampler (72h, 4°C) Accuracy [%]", "setting": "[3]; validation standard MOV", "value": 96.9, "unit": "%"},
      {"measurement": "Autosampler (24h, 4°C) Accuracy [%]", "setting": "[3]; validation standard ULOV", "value": 103.9, "unit": "%"},
      {"measurement": "Autosampler (72h, 4°C) Accuracy [%]", "setting": "[3]; validation standard ULOV", "value": 102.9, "unit": "%"}
    ]}
  ]
}
